Test results reported in PubChem BioAssay (NCI).
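48-hour exposure; five concentrations; linearly interpolated endpoints. Definition used: TGI = concentration required for complete inhibition of growth.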

Legend:
Assay in all cases: DTP human tumour cell line panel, 48 h
[1] = tested on: PC-3 prostate
[2] = tested on: LOX IMVI melanoma
[3] = tested on: NCI-H226 lung
[4] = tested on: TK-10 renal
[5] = tested on: KM12 colon
[6] = tested on: ACHN renal
[7] = tested on: OVCAR-8 ovarian
[8] = tested on: RXF 393 renal
[9] = tested on: SW-620 colon
[10] = tested on: SK-MEL-28 melanoma
[11] = tested on: NCI-H23 lung
[12] = tested on: OVCAR-5 ovarian
[13] = tested on: OVCAR-4 ovarian
[14] = tested on: CAKI-1 renal
[15] = tested on: SF-268 CNS
[16] = tested on: A498 renal
[17] = tested on: HOP-62 NSCLC
[18] = tested on: SK-MEL-2 melanoma
[19] = tested on: EKVX NSCLC
[20] = tested on: BT-549 breast
[21] = tested on: NCI/ADR-RES ovarian
[22] = tested on: UACC-257 melanoma
[23] = tested on: SNB-19 CNS
[24] = tested on: MDA-MB-435
[25] = tested on: HL-60(TB) leukemia
[26] = tested on: SK-MEL-5 melanoma
[27] = tested on: COLO 205 colon
[28] = tested on: NCI-H522 lung
[29] = tested on: MDA-MB-231 breast
[30] = tested on: SK-OV-3 ovarian
[31] = tested on: SR leukemia
[32] = tested on: UO-31 renal
[33] = tested on: UACC-62 melanoma
[34] = tested on: SF-539 CNS
[35] = tested on: MDA-N
[36] = tested on: CCRF-CEM leukemia
[37] = tested on: DU-145 prostate
[38] = tested on: SF-295 CNS
[39] = tested on: T-47D breast
[40] = tested on: SNB-75 CNS
[41] = tested on: IGROV1 ovarian
[42] = tested on: A549 NSCLC
[43] = tested on: HCT-15 colon
[44] = tested on: MOLT-4 leukemia
[45] = tested on: MALME-3M melanoma
[46] = tested on: HS 578T breast
[47] = tested on: OVCAR-3 ovarian
[48] = tested on: HCC-2998 colon
[49] = tested on: HCT-116 colon
[50] = tested on: RPMI-8226 leukemia
[51] = tested on: 786-0 renal
[52] = tested on: MCF7 breast
[53] = tested on: HT29 colon
[54] = tested on: M14 melanoma
[55] = tested on: HOP-92 NSCLC
[56] = tested on: U251 CNS
[57] = tested on: SN12C renal
[58] = tested on: K-562 leukemia
[59] = tested on: NCI-H460 lung

Q: Which TGI [1] does the source give for `Cc1cc(O)c(C=O)c2c1C(=O)Oc1c(CO)c(O)c3c(c1O2)C(O)OC3=O` (stereo not drawn) here?
A: Its TGI is over 100 µM.

Q: And the TGI [2]?
A: Its TGI is over 100 µM.

Q: What about the TGI [3] of the same compound?
A: The TGI was over 100 µM.

Q: What about the TGI [4] of the same compound?
A: The TGI was over 100 µM.

Q: And the TGI [5]?
A: The TGI was over 100 µM.

Q: And the TGI [6]?
A: The TGI was over 100 µM.

Q: And the TGI [7]?
A: Its TGI is over 100 µM.

Q: What about the TGI [8] of the same compound?
A: The TGI was over 100 µM.

Q: And the TGI [9]?
A: Its TGI is over 100 µM.

Q: And the TGI [10]?
A: Its TGI is over 100 µM.

Q: And the TGI [11]?
A: The TGI was over 100 µM.

Q: What about the TGI [12] of the same compound?
A: The TGI was over 100 µM.

Q: And the TGI [13]?
A: The TGI was over 100 µM.

Q: And the TGI [14]?
A: The TGI was over 100 µM.

Q: What about the TGI [15] of the same compound?
A: Its TGI is over 100 µM.

Q: What about the TGI [16] of the same compound?
A: The TGI was over 100 µM.

Q: What about the TGI [17] of the same compound?
A: Its TGI is over 100 µM.

Q: And the TGI [18]?
A: The TGI was over 100 µM.

Q: And the TGI [19]?
A: Its TGI is over 100 µM.

Q: And the TGI [20]?
A: The TGI was over 100 µM.

Q: What about the TGI [21] of the same compound?
A: Its TGI is over 100 µM.

Q: And the TGI [22]?
A: The TGI was over 100 µM.

Q: What about the TGI [23] of the same compound?
A: Its TGI is over 100 µM.

Q: And the TGI [24]?
A: The TGI was over 100 µM.

Q: What about the TGI [25] of the same compound?
A: Its TGI is 79.2 µM.

Q: What about the TGI [26] of the same compound?
A: Its TGI is over 100 µM.

Q: And the TGI [27]?
A: Its TGI is over 100 µM.

Q: What about the TGI [28] of the same compound?
A: The TGI was over 100 µM.

Q: What about the TGI [29] of the same compound?
A: The TGI was over 100 µM.

Q: And the TGI [30]?
A: Its TGI is over 100 µM.

Q: What about the TGI [31] of the same compound?
A: Its TGI is 66.2 µM.

Q: What about the TGI [32] of the same compound?
A: The TGI was over 100 µM.

Q: And the TGI [33]?
A: Its TGI is over 100 µM.

Q: What about the TGI [34] of the same compound?
A: The TGI was over 100 µM.

Q: And the TGI [35]?
A: Its TGI is over 100 µM.

Q: And the TGI [36]?
A: The TGI was over 100 µM.

Q: What about the TGI [37] of the same compound?
A: Its TGI is over 100 µM.

Q: What about the TGI [38] of the same compound?
A: Its TGI is over 100 µM.

Q: And the TGI [39]?
A: The TGI was over 100 µM.

Q: What about the TGI [40] of the same compound?
A: Its TGI is over 100 µM.

Q: What about the TGI [41] of the same compound?
A: Its TGI is over 100 µM.

Q: And the TGI [42]?
A: The TGI was over 100 µM.

Q: What about the TGI [43] of the same compound?
A: Its TGI is over 100 µM.

Q: And the TGI [44]?
A: Its TGI is 94.1 µM.

Q: And the TGI [45]?
A: The TGI was over 100 µM.

Q: And the TGI [46]?
A: The TGI was over 100 µM.

Q: And the TGI [47]?
A: Its TGI is over 100 µM.

Q: And the TGI [48]?
A: The TGI was over 100 µM.

Q: What about the TGI [49] of the same compound?
A: The TGI was over 100 µM.

Q: And the TGI [50]?
A: Its TGI is 54.5 µM.

Q: What about the TGI [51] of the same compound?
A: The TGI was over 100 µM.

Q: What about the TGI [52] of the same compound?
A: Its TGI is over 100 µM.

Q: And the TGI [53]?
A: The TGI was over 100 µM.

Q: And the TGI [54]?
A: Its TGI is over 100 µM.

Q: And the TGI [55]?
A: Its TGI is over 100 µM.

Q: What about the TGI [56] of the same compound?
A: Its TGI is over 100 µM.

Q: What about the TGI [57] of the same compound?
A: The TGI was over 100 µM.

Q: `CCOC(=O)C1(O)C(=O)C2=C3C(=O)OC(C4OC(=O)c5c(c(O)c(O)c(O)c5C31)-c1c(cc(O)c(O)c1O)C(=O)OC1COC(=O)c3cc(O)c(O)c(O)c3-c3c(cc(O)c(O)c3O)C(=O)OC14)[C@@H]2O` (stereo partly drawn) was tested. Which TGI [1] did it give?
A: The TGI was over 100 µM.

Q: What about the TGI [2] of the same compound?
A: The TGI was 39.3 µM.

Q: What about the TGI [3] of the same compound?
A: The TGI was 48.6 µM.

Q: What about the TGI [5] of the same compound?
A: The TGI was over 100 µM.

Q: What about the TGI [6] of the same compound?
A: Its TGI is 35.2 µM.

Q: What about the TGI [7] of the same compound?
A: Its TGI is 39.5 µM.

Q: What about the TGI [8] of the same compound?
A: Its TGI is 36.8 µM.

Q: What about the TGI [9] of the same compound?
A: The TGI was 54.5 µM.

Q: And the TGI [10]?
A: Its TGI is over 100 µM.

Q: What about the TGI [11] of the same compound?
A: Its TGI is 39.5 µM.

Q: And the TGI [12]?
A: The TGI was 35.3 µM.

Q: What about the TGI [13] of the same compound?
A: Its TGI is 45.1 µM.

Q: What about the TGI [14] of the same compound?
A: The TGI was 25.9 µM.

Q: And the TGI [15]?
A: Its TGI is 52.9 µM.

Q: And the TGI [16]?
A: The TGI was over 100 µM.

Q: What about the TGI [17] of the same compound?
A: Its TGI is over 100 µM.

Q: What about the TGI [18] of the same compound?
A: The TGI was 94.7 µM.

Q: What about the TGI [19] of the same compound?
A: The TGI was 38.4 µM.

Q: And the TGI [20]?
A: Its TGI is 61.5 µM.

Q: What about the TGI [21] of the same compound?
A: The TGI was over 100 µM.

Q: What about the TGI [22] of the same compound?
A: The TGI was over 100 µM.

Q: What about the TGI [23] of the same compound?
A: Its TGI is over 100 µM.

Q: And the TGI [24]?
A: Its TGI is 33.4 µM.

Q: What about the TGI [25] of the same compound?
A: The TGI was 72.7 µM.

Q: What about the TGI [58] of the same compound?
A: The TGI was 56.9 µM.

Q: And the TGI [26]?
A: The TGI was 27.8 µM.

Q: What about the TGI [27] of the same compound?
A: Its TGI is 35.4 µM.

Q: And the TGI [28]?
A: Its TGI is 53.6 µM.

Q: And the TGI [29]?
A: The TGI was 36.1 µM.

Q: And the TGI [30]?
A: The TGI was over 100 µM.

Q: And the TGI [31]?
A: The TGI was over 100 µM.

Q: What about the TGI [32] of the same compound?
A: The TGI was over 100 µM.

Q: And the TGI [33]?
A: The TGI was 43.1 µM.

Q: And the TGI [35]?
A: The TGI was 37.8 µM.

Q: What about the TGI [36] of the same compound?
A: The TGI was 52.6 µM.

Q: And the TGI [37]?
A: Its TGI is over 100 µM.

Q: And the TGI [38]?
A: The TGI was 43 µM.

Q: What about the TGI [39] of the same compound?
A: The TGI was over 100 µM.

Q: What about the TGI [41] of the same compound?
A: Its TGI is 79.5 µM.

Q: And the TGI [42]?
A: Its TGI is 44.4 µM.

Q: And the TGI [43]?
A: Its TGI is 40.8 µM.

Q: What about the TGI [44] of the same compound?
A: The TGI was 57.2 µM.

Q: And the TGI [45]?
A: The TGI was 95.8 µM.

Q: What about the TGI [46] of the same compound?
A: The TGI was over 100 µM.

Q: And the TGI [47]?
A: The TGI was 85.4 µM.

Q: And the TGI [48]?
A: Its TGI is 95.4 µM.

Q: And the TGI [49]?
A: Its TGI is 30.8 µM.

Q: And the TGI [50]?
A: The TGI was 85 µM.

Q: And the TGI [51]?
A: The TGI was 39.4 µM.

Q: And the TGI [52]?
A: Its TGI is 40.1 µM.

Q: And the TGI [59]?
A: Its TGI is over 100 µM.

Q: What about the TGI [53] of the same compound?
A: Its TGI is 51.3 µM.

Q: What about the TGI [54] of the same compound?
A: The TGI was 67.6 µM.

Q: What about the TGI [55] of the same compound?
A: The TGI was 86.5 µM.

Q: What about the TGI [56] of the same compound?
A: Its TGI is 44.2 µM.

Q: What about the TGI [57] of the same compound?
A: The TGI was 35.4 µM.
